# Read-outs that look alike come from different tables or passages of the source.
# Experiments:
# S. aureus ATCC 6538 = system: S. aureus ATCC 6538
# Method in brief: (§1)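 Broth microdilution per CLSI in Müller-Hinton broth and modified LYM broth (pH 7.4; variants with 300–50 mM NaCl, 2.5–0.5 mM MgCl2, or pH 6.5–4.5). Inoculum 5 × 10^5 CFU/mL; peptides at final 50 to 0.78 µg/mL, twofold series. MIC reported; three independent repeats.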
# S. aureus ATCC 33593 = system: S. aureus ATCC 33593
# Method in brief: as §1
# [1] = system: Escherichia coli (ATCC 25922)
# Method in brief: as §1
# S. aureus ATCC 25923 = system: S. aureus ATCC 25923
# Method in brief: as §1
# [2] = system: A. baumannii 14B00100 (Acinetobacter sp., BCRC number 14B0100)
# Method in brief: as §1
# S. aureus ATCC 33591 = system: S. aureus ATCC 33591
# Method in brief: as §1
# [3] = system: A. baumannii 14B0097 (Acinetobacter sp., BCRC number 14B0097)
# Method in brief: as §1
# [4] = system: A. baumannii 14B0091 (Acinetobacter sp., BCRC number 14B0091)
# Method in brief: as §1
# [5] = LYM broth, 0 mM NaCl, 16 h, 37 °C
# [6] = LYM broth, 50 mM NaCl, 16 h, 37 °C
# [7] = LYM broth, 100 mM NaCl, 16 h, 37 °C
# [8] = LYM broth, 200 mM (NaCl), 16 h, 37 °C
# [9] = LYM broth, 300 mM (NaCl), 16 h, 37 °C
# [10] = MH broth, 5 × 10^5 CFU/mL, 16 h, 37 °C, repeated three times
substance,measurement,setting,value
Ac-WLKWLAKKKKWRK-NH2 [Peptide W5K05],MIC,S. aureus ATCC 6538; [5],3.13 µg/mL
same,MIC,"S. aureus ATCC 6538; LYM broth, 0.5 mM MgCl2",1.56 µg/mL
same,MIC,"S. aureus ATCC 6538; LYM broth, 1.5 mM MgCl2",1.56 µg/mL
same,MIC,"S. aureus ATCC 6538; LYM broth, 2.5 mM MgCl2",3.13 µg/mL
same,MIC,S. aureus ATCC 6538; [6],3.13 µg/mL
same,MIC,S. aureus ATCC 6538; [7],6.25 µg/mL
same,MIC,S. aureus ATCC 6538; [8],12.5 µg/mL
same,MIC,S. aureus ATCC 6538; [9],25 µg/mL
same,MIC,"S. aureus ATCC 6538; LYM broth, pH 4.5",3.13 µg/mL
same,MIC,"S. aureus ATCC 6538; LYM broth, pH 5.5",1.56 µg/mL
same,MIC,"S. aureus ATCC 6538; LYM broth, pH 6.5",1.56 µg/mL
same,MIC,S. aureus ATCC 6538; [10],12.5 µg/mL
same,MIC,S. aureus ATCC 33593; [5],6.25 µg/mL
same,MIC,"S. aureus ATCC 33593; LYM broth, 0.5 mM MgCl2",12.5 µg/mL
same,MIC,"S. aureus ATCC 33593; LYM broth, 1.5 mM MgCl2",12.5 µg/mL
same,MIC,"S. aureus ATCC 33593; LYM broth, 2.5 mM MgCl2",12.5 µg/mL
same,MIC,S. aureus ATCC 33593; [6],6.25 µg/mL
same,MIC,S. aureus ATCC 33593; [7],12.5 µg/mL
same,MIC,S. aureus ATCC 33593; [8],25 µg/mL
same,MIC,S. aureus ATCC 33593; [9],50 µg/mL
same,MIC,"S. aureus ATCC 33593; LYM broth, pH 4.5",3.13 µg/mL
same,MIC,"S. aureus ATCC 33593; LYM broth, pH 5.5",3.13 µg/mL
same,MIC,"S. aureus ATCC 33593; LYM broth, pH 6.5",3.13 µg/mL
same,MIC,S. aureus ATCC 33593; [10],50 µg/mL
same,MIC,[1]; [5],1.56 µg/mL
same,MIC,"[1]; LYM broth, 0.5 mM MgCl2",3.13 µg/mL
same,MIC,"[1]; LYM broth, 1.5 mM MgCl2",6.25 µg/mL
same,MIC,"[1]; LYM broth, 2.5 mM MgCl2",6.25 µg/mL
same,MIC,[1]; [6],3.13 µg/mL
same,MIC,[1]; [7],12.5 µg/mL
same,MIC,[1]; [8],50 µg/mL
same,MIC,[1]; [9],>50 µg/mL
same,MIC,"[1]; LYM broth, pH 4.5",1.56 µg/mL
same,MIC,"[1]; LYM broth, pH 5.5",1.56 µg/mL
same,MIC,"[1]; LYM broth, pH 6.5",1.56 µg/mL
same,MIC,[1]; [10],12.5 µg/mL
same,MIC,S. aureus ATCC 25923; [5],1.56 µg/mL
same,MIC,"S. aureus ATCC 25923; LYM broth, 0.5 mM MgCl2",1.56 µg/mL
same,MIC,"S. aureus ATCC 25923; LYM broth, 1.5 mM MgCl2",3.13 µg/mL
same,MIC,"S. aureus ATCC 25923; LYM broth, 2.5 mM MgCl2",3.13 µg/mL
same,MIC,S. aureus ATCC 25923; [6],3.13 µg/mL
same,MIC,S. aureus ATCC 25923; [7],6.25 µg/mL
same,MIC,S. aureus ATCC 25923; [8],50 µg/mL
same,MIC,S. aureus ATCC 25923; [9],50 µg/mL
same,MIC,"S. aureus ATCC 25923; LYM broth, pH 4.5",1.56 µg/mL
same,MIC,"S. aureus ATCC 25923; LYM broth, pH 5.5",1.56 µg/mL
same,MIC,"S. aureus ATCC 25923; LYM broth, pH 6.5",1.56 µg/mL
same,MIC,S. aureus ATCC 25923; [10],25 µg/mL
same,MIC,[2]; [5],0.78 µg/mL
same,MIC,"[2]; LYM broth, 0.5 mM MgCl2",1.56 µg/mL
same,MIC,"[2]; LYM broth, 1.5 mM MgCl2",1.56 µg/mL
same,MIC,"[2]; LYM broth, 2.5 mM MgCl2",1.56 µg/mL
same,MIC,[2]; [6],1.56 µg/mL
same,MIC,[2]; [7],3.13 µg/mL
same,MIC,[2]; [8],6.25 µg/mL
same,MIC,[2]; [9],12.5 µg/mL
same,MIC,"[2]; LYM broth, pH 4.5",1.56 µg/mL
same,MIC,"[2]; LYM broth, pH 5.5",1.56 µg/mL
same,MIC,"[2]; LYM broth, pH 6.5",1.56 µg/mL
same,MIC,[2]; [10],12.5 µg/mL
same,MIC,S. aureus ATCC 33591; [5],6.25 µg/mL
same,MIC,"S. aureus ATCC 33591; LYM broth, 0.5 mM MgCl2",6.25 µg/mL
same,MIC,"S. aureus ATCC 33591; LYM broth, 1.5 mM MgCl2",12.5 µg/mL
same,MIC,"S. aureus ATCC 33591; LYM broth, 2.5 mM MgCl2",12.5 µg/mL
same,MIC,S. aureus ATCC 33591; [6],6.25 µg/mL
same,MIC,S. aureus ATCC 33591; [7],12.5 µg/mL
same,MIC,S. aureus ATCC 33591; [8],25 µg/mL
same,MIC,S. aureus ATCC 33591; [9],50 µg/mL
same,MIC,"S. aureus ATCC 33591; LYM broth, pH 4.5",6.25 µg/mL
same,MIC,"S. aureus ATCC 33591; LYM broth, pH 5.5",3.13 µg/mL
same,MIC,"S. aureus ATCC 33591; LYM broth, pH 6.5",3.13 µg/mL
same,MIC,S. aureus ATCC 33591; [10],50 µg/mL
same,MIC,[3]; [5],1.56 µg/mL
same,MIC,"[3]; LYM broth, 0.5 mM MgCl2",1.56 µg/mL
same,MIC,"[3]; LYM broth, 1.5 mM MgCl2",1.56 µg/mL
same,MIC,"[3]; LYM broth, 2.5 mM MgCl2",1.56 µg/mL
same,MIC,[3]; [6],3.13 µg/mL
same,MIC,[3]; [7],3.13 µg/mL
same,MIC,[3]; [8],6.25 µg/mL
same,MIC,[3]; [9],25 µg/mL
same,MIC,"[3]; LYM broth, pH 4.5",3.13 µg/mL
same,MIC,"[3]; LYM broth, pH 5.5",1.56 µg/mL
same,MIC,"[3]; LYM broth, pH 6.5",1.56 µg/mL
same,MIC,[3]; [10],6.25 µg/mL
same,MIC,[4]; [5],1.56 µg/mL
same,MIC,"[4]; LYM broth, 0.5 mM MgCl2",1.56 µg/mL
same,MIC,"[4]; LYM broth, 1.5 mM MgCl2",1.56 µg/mL
same,MIC,"[4]; LYM broth, 2.5 mM MgCl2",1.56 µg/mL
same,MIC,[4]; [6],1.56 µg/mL
same,MIC,[4]; [7],3.13 µg/mL
same,MIC,[4]; [8],6.25 µg/mL
same,MIC,[4]; [9],25 µg/mL
same,MIC,"[4]; LYM broth, pH 4.5",3.13 µg/mL
same,MIC,"[4]; LYM broth, pH 5.5",1.56 µg/mL
same,MIC,"[4]; LYM broth, pH 6.5",1.56 µg/mL
same,MIC,[4]; [10],12.5 µg/mL

# From PMC12649549, “Sequence Permutation Generated Lysine and Tryptophan-Rich Antimicrobial Peptides with Enhanced Therapeutic Index” (Antibiotics, 2025)
